Laboratory results as given in patent publication US7166622B2, “Substituted phenylsulfonamide inhibitors of beta amyloid production” (Wyeth, priority 2002, dated 2007).
Where two headings read alike, the source gives them in different places.

How the values were obtained:
[1] = test system: beta amyloid production; assay: Repressor Release Assay (RRA); assay type: cell-based; conditions: for fold induction at 20 µg/mL / fold induction at 10 µg/mL: read-out: APPI Fold Increase; for APPI % of Example #98: relative to Example 98
How it was run: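 Read-out is luciferase luminescence (RLU) after 36-48 h duplicate compound exposure of transfected CHO-K1 cells. These cells carry transiently introduced APP-lacI and pRSVO-luc DNA. Diluent control was 25 mM Hepes/1% DMSO; toxicity recorded as binary score (1 non-toxic, 0 toxic).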

[2] = test system: CHO-K1 cells; assay: Toxicity in RRA (loss of luciferase signal); conditions: toxicity = loss of signal (<0.75 fold increase)
Experimental: The beta amyloid inhibitory activity of the compounds of the present invention was determined using the Repressor Release Assay (RRA).
“Fold Increase” refers to the amount of luciferase activity (measured in relative light units) over diluent control. “SEM” refers to the standard error of the mean for fold increase.

[3] = Conc 20 μg/ml, luciferase activity over diluent control
[4] = Conc 10 μg/ml, luciferase activity over diluent control

Row | melting point [°C] | Structure (SMILES) | fold induction at 20 µg/mL [1, 3] | (%)APPI Toxicity ([2]; Conc 20 μg/ml) | fold induction at 10 µg/mL [1, 4] | (%)APPI Toxicity ([2]; Conc 10 μg/ml) | further results
1 | 128 to 130 | CC(C)(C)[C@@H](CO)NS(=O)(=O)c1ccc(Cl)cc1 [Example 277, 4-Chloro-N-[(1S)-1-(hydroxymethyl)-2,2-dimethylpropyl]benzenesulfonamide] | 1.5 | 1 (1=non-toxic) | – | – | –
2 | 127 to 128 | O=S(=O)(N[C@H](CO)c1ccccc1)c1ccc(Cl)cc1 [Example 273, 4-Chloro-N-[(1S)-2-hydroxy-1-phenylethyl]benzenesulfonamide] | 1.5 | 1 (1=non-toxic) | – | – | –
3 | 89 to 94 | CC(C)[C@@H](CO)NS(=O)(=O)c1ccc(Br)cc1 [Example 275, 4-Bromo-N-[(1S)-1-(hydroxymethyl)-2-methylpropyl]benzenesulfonamide] | 2 | 1 (1=non-toxic) | – | – | –
4 | 118 to 120 | CC[C@H](C)[C@@H](CO)NS(=O)(=O)c1ccc(I)cc1 [Example 276, 4-Iodo-N-[(1S,2S)-1-(hydroxymethyl)-2-methylbutyl]benzenesulfonamide] | 2 | 1 (1=non-toxic) | – | – | –
5 | 83 to 85 | CC(C)[C@@H](CO)NS(=O)(=O)c1ccc(Cl)cc1 [Example 274, 4-Chloro-N-[(1S)-1-(hydroxymethyl)-2-methylpropyl]benzenesulfonamide] | 2.1 | 1 (1=non-toxic) | – | – | –
6 | 89 to 92 | CC[C@H](C)[C@@H](CO)NS(=O)(=O)c1ccc(Cl)c(N)c1 [Example 14, 3-Amino-4-chloro-N-[(1S,2S)-1-(hydroxymethyl)-2-methylbutyl]benzenesulfonamide] | 1.9 | 1 (1=non-toxic) | – | – | –
7 | 115 to 118 | O=S(=O)(N[C@H](CO)C1CCCCC1)c1ccc(Cl)cc1 [Example 272, 4-Chloro-N-[(1S)-1-cyclohexyl-2-hydroxyethyl]benzenesulfonamide] | 2.3 | 1 (1=non-toxic) | – | – | –
8 | – | CC[C@H](C)[C@@H](CO)N(CC#Cc1ccccc1)S(=O)(=O)c1ccc(Cl)cc1 [Example 48, 4-chloro-N-[(1S,2S)-1-(hydroxymethyl)-2-methylbutyl]-N-(3-phenylprop-2-ynyl) benzenesulfonamide] | – | 1 (1=non-toxic) | – | – | APPI Fold Increase [1, 3]: 3.1 fold; APPI % of Example #98 ([1]; Conc 20 μg/ml): 116.6%
9 | – | CC[C@H](C)[C@H](NS(=O)(=O)c1ccc(F)cc1)C(O)c1ccc(N(C)C)cc1 (stereo partly drawn) [Example 143, N-{(1S,2S)-1-[[4-(dimethylamino)phenyl](hydroxy)methyl]-2-methylbutyl}-4-fluorobenzenesulfonamide] | – | – | 5.72 | 1 (1=non-toxic) | –
10 | – | C=CCN([C@H](CO)[C@@H](C)CC)S(=O)(=O)c1ccc(Cl)cc1 [Example 40, N-Allyl-4-chloro-N-[(1S,2 S)-1-(hydroxymethyl)-2-methylbutyl]benzenesulfonamide] | 3.4 | 1 (1=non-toxic) | – | – | –
11 | – | C/C=C(\C)C(O)(/C(C)=C/C)[C@@H](NS(=O)(=O)c1ccc(F)cc1)[C@@H](C)CC (stereo partly drawn) [Example 245, 4-fluoro-N-{(1S,3E)-2-hydroxy-3-methyl-2-[(1E)-1-methyl-1-propenyl]-1-[(1S)-1-methylpropyl]-3-pentenyl}benzenesulfonamide] | 3.5 | 1 (1=non-toxic) | 2.05 | 1 (1=non-toxic) | –
12 | – | CC[C@H](C)[C@H](NS(=O)(=O)c1cccc(Cl)c1)C(O)C(C)(C)C (stereo partly drawn) [Example 191, 3-chloro-N-{(1S)-2-hydroxy-3,3-dimethyl-1-[(1S)-1-methylpropyl]butyl}benzenesulfonamide] | – | – | 2.42 | 1 (1=non-toxic) | –
13 | – | CCCCCCC(O)(CCCCCC)[C@@H](NS(=O)(=O)c1ccccc1F)[C@@H](C)CC [Example 261, 2-fluoro-N-{(1S)-2-hexyl-2-hydroxy-1-[(18)-1-methylpropyl]octyl}benzenesulfonamide] | – | – | – | 1 (1=non-toxic) | APPI Fold Increase [1, 4]: 3.5 fold; APPI % of Example #98 ([1]; Conc 10 μg/ml): 104.4%
14 | – | CC(C)(C)[C@@H](CO)NS(=O)(=O)c1c(Cl)cc(Cl)cc1Cl [Example 32, 2,4,6-trichloro-N-[(1 S)-1-(hydroxymethyl)-2,2-dimethylpropyl]benzenesulfonamide] | 2.2 | 1 (1=non-toxic) | – | – | –
15 | – | CC[C@H](C)[C@H](NS(=O)(=O)c1ccc(Cl)cc1)C(O)(c1ccc(OC)cc1)c1ccc(OC)cc1 [Example 231, 4-chloro-N-((1S,2 S)-1-{hydroxy [bis(4-methoxyphenyl)]methyl}-2-methylbutyl)benzenesulfonamide] | – | – | 2.49 | 1 (1=non-toxic) | –
16 | – | CCCCCC(O)(CCCCC)[C@@H](NS(=O)(=O)c1cccc(Cl)c1)[C@@H](C)CC [Example 250, 3-chloro-N-{(1S)-2-hydroxy-1-[(1S)-1-methylpropyl]-2-pentylheptyl}benzenesulfonamide] | – | – | 2.4 | 1 (1=non-toxic) | –
17 | – | CC(C)[C@@H](CO)NS(=O)(=O)c1c(Cl)cc(Cl)cc1Cl [Example 28, 2,4,6-trichloro-N-[(1S)-1-(hydroxymethyl)-2-methylpropyl]benzenesulfonamide] | 1.5 | 1 (1=non-toxic) | – | – | –
18 | – | CC[C@H](C)[C@H](NS(=O)(=O)c1ccc(Br)cc1)C(C)O (stereo partly drawn) [Example 145, 4-bromo-N-[(1S,2S)-1-(1-hydroxyethyl)-2-methylbutyl]benzenesulfonamide] | – | – | 3.9 | 1 (1=non-toxic) | –
19 | – | CC[C@H](C)[C@H](NS(=O)(=O)c1ccc(Cl)cc1)C(O)C(C)C (stereo partly drawn) [Example 170, 4-chloro-N-{(1S)-2-hydroxy-3-methyl-1-[(1S)-1-methylpropyl]butyl}benzenesulfonamide] | – | – | 1.92 | 1 (1=non-toxic) | –
20 | – | O=S(=O)(NC1(CO)CCCC1)c1ccc(Br)cc1 [Example 94, 4-bromo-N-[1-(hydroxymethyl)cyclopentyl]benzenesulfonamide] | 2.5 | 1 (1=non-toxic) | – | – | –
21 | – | CC[C@H](C)[C@H](NS(=O)(=O)c1ccc(F)cc1)C(O)(c1ccc(OC)cc1)c1ccc(OC)cc1 [Example 244, 4-fluoro-N-((1S,2S)-1-{hydroxy[bis(4-methoxyphenyl)]methyl}-2-methylbutyl) benzenesulfonamide] | – | – | – | 1 (1=non-toxic) | APPI Fold Increase [1, 4]: 1.51 fold; APPI % of Example #98 ([1]; Conc 10 μg/ml): 69.29%
22 | – | CC[C@H](C)[C@@H](CO)NS(=O)(=O)c1ccc2ccccc2c1 [Example 13, N-[(1S,2S)-1-(hydroxymethyl)-2-methylbutyl]naphthalene-2-sulfonamide] | 1.8 | 1 (1=non-toxic) | – | – | –
23 | – | CC[C@H](CC(C)C)[C@@H](CO)NS(=O)(=O)c1ccc(Cl)cc1 [Example 53, 4-chloro-N-[(1S,2R)-2-ethyl-1-(hydroxymethyl)-4-methylpentyl]benzenesulfonamide] | – | – | – | – | fold induction at 20 µg/mL ([1]; Conc 20 μg/ml, luciferase activity (RLU) over diluent control): 5.2; (%)APPI Toxicity ([2]; Conc 20 μg/ml, 1=non-toxic, 0=toxic): 1 (1=non-toxic)
